{
  "source": "ChEMBL document CHEMBL5715952",
  "about": "(Oncotarget, 2015)",
  "key": {"[1]": {"test_system": "RPMI-8226", "test": "Synergistic antiproliferative activity against wild-type human RPMI-8226 cells assessed as reduction in cell viability at ED50 incubated for 72 hrs in presence of bortezomib by MTS assay", "format": "functional"}, "[2]": {"test_system": "ANBL-6", "test": "Synergistic antiproliferative activity against wild-type human ANBL-6 cells assessed as reduction in cell viability at ED50 incubated for 72 hrs in presence of bortezomib by MTS assay", "format": "functional"}, "[3]": {"test": "Synergistic antiproliferative activity against human ANBL-6 BR resistant cells assessed as reduction in cell viability at ED50 incubated for 72 hrs in presence of bortezomib by MTS assay", "format": "functional"}, "[4]": {"test_system": "RPMI-8226", "test": "Synergistic antiproliferative activity against wild-type human RPMI-8226 cells assessed as reduction in cell viability at ED75 incubated for 72 hrs in presence of bortezomib by MTS assay", "format": "functional"}, "[5]": {"test": "Synergistic antiproliferative activity against human melphalan-resistant RPMI-8226 cells assessed as reduction in cell viability at ED75 incubated for 72 hrs in presence of bortezomib by MTS assay", "format": "functional, Melphalan-resistant RPMI-8226 cell"}, "[6]": {"test_system": "ANBL-6", "test": "Synergistic antiproliferative activity against wild-type human ANBL-6 cells assessed as reduction in cell viability at ED75 incubated for 72 hrs in presence of bortezomib by MTS assay", "format": "functional"}, "[7]": {"test_system": "Bortezomib-resistant ANBL6", "test": "Synergistic antiproliferative activity against human bortezomib-resistant ANBL6 cells assessed as reduction in cell viability at ED75 incubated for 72 hrs in presence of bortezomib by MTS assay", "format": "functional"}, "[8]": {"test_system": "RPMI-8226", "test": "Synergistic antiproliferative activity against wild-type human RPMI-8226 cells assessed as reduction in cell viability at ED90 incubated for 72 hrs in presence of bortezomib by MTS assay", "format": "functional"}, "[9]": {"test": "Synergistic antiproliferative activity against human melphalan-resistant RPMI-8226 cells assessed as reduction in cell viability at ED90 incubated for 72 hrs in presence of bortezomib by MTS assay", "format": "functional, Melphalan-resistant RPMI-8226 cell"}, "[10]": {"test_system": "ANBL-6", "test": "Synergistic antiproliferative activity against wild-type human ANBL-6 cells assessed as reduction in cell viability at ED90 incubated for 72 hrs in presence of bortezomib by MTS assay", "format": "functional"}, "[11]": {"test_system": "Bortezomib-resistant ANBL6", "test": "Synergistic antiproliferative activity against human bortezomib-resistant ANBL6 cells assessed as reduction in cell viability at ED90 incubated for 72 hrs in presence of bortezomib by MTS assay", "format": "functional"}, "[12]": {"test_system": "ANBL-6", "test": "Induction of apoptosis in wild-type human ANBL-6 cells assessed as viable at 40 nM incubated for 72 hrs by annexin V and 7-AAD staining by flow cytometry analysis (Rvb=59 %)", "format": "functional"}, "[13]": {"test_system": "ANBL-6", "test": "Synergistic apoptosis activity in wild-type human ANBL-6 cells assessed as viable at 1600 nM incubated for 72 hrs in the presence of BTZ by annexin V and 7-AAD staining by flow cytometry analysis (Rvb=59 %)", "format": "functional"}, "[14]": {"test_system": "ANBL-6", "test": "Induction of apoptosis in wild-type human ANBL-6 cells assessed as early apoptosis at 40 nM incubated for 72 hrs by annexin V and 7-AAD staining by flow cytometry analysis (Rvb=14 %)", "format": "functional"}, "[15]": {"test_system": "ANBL-6", "test": "Induction of apoptosis in wild-type human ANBL-6 cells assessed as early apoptosis at 1600 nM incubated for 72 hrs by annexin V and 7-AAD staining by flow cytometry analysis (Rvb=14 %)", "format": "functional"}, "[16]": {"test_system": "ANBL-6", "test": "Synergistic apoptosis activity in wild-type human ANBL-6 cells assessed as early apoptosis at 1600 nM incubated for 72 hrs in the presence of BTZ by annexin V and 7-AAD staining by flow cytometry analysis (Rvb=14 %)", "format": "functional"}, "[17]": {"test_system": "Bortezomib-resistant ANBL6", "test": "Induction of apoptosis in human bortezomib-resistant ANBL6 cells assessed as viable at 160 nM incubated for 72 hrs by annexin V and 7-AAD staining by flow cytometry analysis (Rvb=80 %)", "format": "functional"}, "[18]": {"test_system": "Bortezomib-resistant ANBL6", "test": "Induction of apoptosis in human bortezomib-resistant ANBL6 cells assessed as viable at 1600 nM incubated for 72 hrs by annexin V and 7-AAD staining by flow cytometry analysis (Rvb=80 %)", "format": "functional"}, "[19]": {"test_system": "Bortezomib-resistant ANBL6", "test": "Synergistic apoptosis activity in human bortezomib-resistant ANBL6 cells assessed as late apoptosis at 1600 nM incubated for 72 hrs in the presence of BTZ by annexin V and 7-AAD staining by flow cytometry analysis (Rvb=5 %)", "format": "functional"}, "[20]": {"test_system": "Bortezomib-resistant ANBL6", "test": "Induction of apoptosis in human bortezomib-resistant ANBL6 cells assessed as early apoptosis at 1600 nM incubated for 72 hrs by annexin V and 7-AAD staining by flow cytometry analysis (Rvb=15 %)", "format": "functional"}, "[21]": {"test_system": "Bortezomib-resistant ANBL6", "test": "Synergistic apoptosis activity in human bortezomib-resistant ANBL6 cells assessed as early apoptosis at 1600 nM incubated for 72 hrs in the presence of BTZ by annexin V and 7-AAD staining by flow cytometry analysis (Rvb=15 %)", "format": "functional"}, "[22]": {"test_system": "ANBL-6", "test": "Synergistic apoptosis activity in wild-type human ANBL-6 cells assessed as early apoptosis at 1600 nM incubated for 24 hrs in the presence of BTZ by annexin V and 7-AAD staining by flow cytometry analysis", "format": "functional"}, "[23]": {"test_system": "ANBL-6", "test": "Synergistic apoptosis activity in wild-type human ANBL-6 cells assessed as early apoptosis at 1600 nM incubated for 48 hrs in the presence of BTZ by annexin V and 7-AAD staining by flow cytometry analysis", "format": "functional"}, "[24]": {"test_system": "Bortezomib-resistant ANBL6", "test": "Synergistic apoptosis activity in human bortezomib-resistant ANBL6 cells assessed as early apoptosis at 1600 nM incubated for 24 hrs in the presence of BTZ by annexin V and 7-AAD staining by flow cytometry analysis", "format": "functional"}, "[25]": {"test_system": "Bortezomib-resistant ANBL6", "test": "Synergistic apoptosis activity in human bortezomib-resistant ANBL6 cells assessed as early apoptosis at 1600 nM incubated for 48 hrs in the presence of BTZ by annexin V and 7-AAD staining by flow cytometry analysis", "format": "functional"}, "[26]": {"test_system": "Bortezomib-resistant ANBL6", "test": "Synergistic apoptosis activity in human bortezomib-resistant ANBL6 cells assessed as early apoptosis at 1600 nM incubated for 72 hrs in the presence of BTZ by annexin V and 7-AAD staining by flow cytometry analysis", "format": "functional"}, "[27]": {"target": "T1, Bromodomain and extra-terminal motif (BET) (Homo sapiens) (UniProt P25440+O60885+Q58F21+Q15059)", "details": "ANBL-6, dose lower 40.0 nM, dose upper […]"}, "[28]": {"target": "T1, Bromodomain and extra-terminal motif (BET) (Homo sapiens)", "details": "ANBL-6, dose lower 40.0 nM, dose upper […]", "remark": "listed apart in the source"}, "[29]": {"target": "T1, Bromodomain and extra-terminal motif (BET) (Homo sapiens)", "details": "Bortezomib-resistant ANBL6 cell, dose lower 40.0 nM, dose upper […]"}, "[30]": {"target": "T1, Bromodomain and extra-terminal motif (BET) (Homo sapiens)", "details": "Bortezomib-resistant ANBL6 cell, dose lower 40.0 nM, dose upper […]", "remark": "listed apart in the source"}, "[31]": {"target": "T1, Bromodomain and extra-terminal motif (BET) (Homo sapiens)", "details": "Bortezomib-resistant ANBL6 cell, dose lower 40.0 nM, dose upper […]", "remark": "listed apart in the source"}, "[32]": {"target": "T1, Bromodomain and extra-terminal motif (BET) (Homo sapiens)", "details": "Bortezomib-resistant ANBL6 cell, dose lower 40.0 nM, dose upper […]", "remark": "listed apart in the source"}},
  "note": "The source made the active and inactive calls. The calls are words filed in the database; no cut-off is given here.",
  "data": [
    {"compound": "Cc1sc2c(c1C)C(c1ccc(Cl)cc1)=N[C@@H](CC(N)=O)c1nnc(C)n1-2", "values": [
      {"measurement": "CI", "setting": "[1]", "result": 1.367},
      {"measurement": "CI", "setting": "[2]", "result": 0.793},
      {"measurement": "CI", "setting": "[3]", "result": 0.718},
      {"measurement": "CI", "setting": "[4]", "result": 1.15},
      {"measurement": "CI", "setting": "[5]", "result": 0.693},
      {"measurement": "CI", "setting": "[6]", "result": 0.692},
      {"measurement": "CI", "setting": "[7]", "result": 0.494},
      {"measurement": "CI", "setting": "[8]", "result": 1.041},
      {"measurement": "CI", "setting": "[9]", "result": 0.569},
      {"measurement": "CI", "setting": "[10]", "result": 0.614},
      {"measurement": "CI", "setting": "[11]", "result": 0.355},
      {"measurement": "Activity", "setting": "[12]", "result": 59, "unit": "%"},
      {"measurement": "Activity", "setting": "[13]", "result": 6, "unit": "%"},
      {"measurement": "Activity", "setting": "[14]", "result": 12, "unit": "%"},
      {"measurement": "Activity", "setting": "[15]", "result": 31, "unit": "%"},
      {"measurement": "Activity", "setting": "[16]", "result": 84, "unit": "%"},
      {"measurement": "Activity", "setting": "[17]", "result": 78, "unit": "%"},
      {"measurement": "Activity", "setting": "[18]", "result": 54, "unit": "%"},
      {"measurement": "Activity", "setting": "[19]", "result": 10, "unit": "%"},
      {"measurement": "Activity", "setting": "[20]", "result": 30, "unit": "%"},
      {"measurement": "Activity", "setting": "[21]", "result": 67, "unit": "%"},
      {"measurement": "CI", "setting": "[22]", "result": 0.85},
      {"measurement": "CI", "setting": "[23]", "result": 0.24},
      {"measurement": "CI", "setting": "[24]", "result": 0.99},
      {"measurement": "CI", "setting": "[25]", "result": 0.77},
      {"measurement": "CI", "setting": "[26]", "result": 0.87},
      {"measurement": "inhibition", "setting": "[27]", "result": "Active"},
      {"measurement": "inhibition", "setting": "[28]", "result": "Dose-Dependent Effect"},
      {"measurement": "inhibition", "setting": "[29]", "result": "Active"},
      {"measurement": "inhibition", "setting": "[30]", "result": "Dose-Dependent Effect"},
      {"measurement": "inhibition", "setting": "[31]", "result": "Active"},
      {"measurement": "inhibition", "setting": "[32]", "result": "inactive"}
    ]}
  ]
}
